Experimental data taken from US20090239845A1, “PYRAZOLE COMPOUNDS AS PROSTAGLANDIN RECEPTORS LIGANDS” (priority 2005, published 2009).
Where a name gives a salt, the structure may show the parent alone.

Target: T1, human prostanoid EP1 receptor (Homo sapiens, UniProt P34995)
T1 construct: expressed in transfected cells; host or cells: CHO-K1 (membrane fraction)
T1 sequence (P34995 1-402): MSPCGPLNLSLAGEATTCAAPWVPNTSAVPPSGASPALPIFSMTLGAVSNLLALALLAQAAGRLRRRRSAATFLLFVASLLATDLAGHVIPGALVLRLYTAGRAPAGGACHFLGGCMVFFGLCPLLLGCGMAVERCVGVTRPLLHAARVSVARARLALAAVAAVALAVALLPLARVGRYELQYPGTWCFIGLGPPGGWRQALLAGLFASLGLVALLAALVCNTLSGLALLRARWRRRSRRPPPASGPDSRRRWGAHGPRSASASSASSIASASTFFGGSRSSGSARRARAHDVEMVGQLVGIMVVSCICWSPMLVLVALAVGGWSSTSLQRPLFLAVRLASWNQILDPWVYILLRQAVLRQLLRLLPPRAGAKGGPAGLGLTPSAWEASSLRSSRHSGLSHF
Assay: Binding assay for the human prostanoid EP1 receptor (competition with [3H]-PGE2)
Details: negative logarithm10 of the IC50; competition with [3H]-PGE2, CHO-K1 cell membranes; averages of a number of experiments; read-out: pIC50 value (converted)
Experimental: Competition assay using [^3H]-PGE2.
Compound potencies are determined using a radioligand binding assay. In this assay compound potencies are determined from their ability to compete with tritiated prostaglandin E2 ([^3H]-PGE2) for binding to the human EP1 receptor.
This assay utilises Chinese hamster ovary-K1 (CHO-K1) cells into which a stable vector containing the EP1 cDNA has previously been transfected. Cells are cultured in suitable flasks containing culture medium such as DMEM:F-12 supplemented with 10% v/v foetal calf serum, 2 mM L-glutamine, 0.25 mg/ml geneticin, 10 μg/ml puromycin and 10 μM indomethacin.
Cells are detached from the culture flasks by incubation in calcium and magnesium free phosphate buffered saline containing 1 mM disodium ethylenediaminetetraacetic acid (Na2EDTA) and 10 μM indomethacin for 5 min. The cells are isolated by centrifugation at 250×g for 5mins and suspended in an ice cold buffer such as 50 mM Tris, 1 mM Na2EDTA, 140 mM NaCl, 10 μM indomethacin (pH 7.4). The cells are homogenised using a Polytron tissue disrupter (2×10s burst at full setting), centrifuged at 48,000×g for 20mins and the pellet containing the membrane fraction is washed (optional) three times by suspension and centrifugation at 48,000×g for 20mins. The final membrane pellet is suspended in an assay buffer such as 10 mM 2-[N-morpholino]ethanesulphonic acid, 1 mM Na2EDTA, 10 mM MgCl2 (pH 6). Aliquots are frozen at −80° C. until required.
For the binding assay the cell membranes, competing compounds and [^3H]-PGE2 (3 nM final assay concentration) are incubated in a final volume of 100 μl for 30 min at 30° C. All reagents are prepared in assay buffer. Reactions are terminated by rapid vacuum filtration over GF/B filters using a Brandell cell harvester. The filters are washed with ice cold assay buffer, dried and the radioactivity retained on the filters is measured by liquid scintillation counting in Packard TopCount scintillation counter.
The data are analysed using non linear curve fitting techniques to determine the concentration of compound producing 50% inhibition of specific binding (IC50).

IC50, ≤ 10 nM:
Cc1cc(NC(=O)CC(C)(C)C)nn1Cc1cc(Cl)ccc1OCc1ccc(F)cc1Cl [Example 133, N-{1-[(5-Chloro-2-{[(2-chloro-4-fluorophenyl)methyl]oxy}phenyl)methyl]-5-methyl-1H-pyrazol-3-yl}-3,3-dimethylbutanamide]
Cc1cc(NC(=O)CC(C)(C)C)nn1Cc1cc(Cl)ccc1OCc1ccc(Cl)cc1F [Example 136, N-{1-[(5-Chloro-2-{[(4-chloro-2-fluorophenyl)methyl]oxy}phenyl)methyl]-5-methyl-1H-pyrazol-3-yl}-3,3-dimethylbutanamide]
Cc1cc(NC(=O)CC(C)(C)C)nn1Cc1cc(Cl)ccc1OCc1ccc(Cl)cc1 [Example 137, N-{1-[(5-Chloro-2-{[(4-chlorophenyl)methyl]oxy}phenyl)methyl]-5-methyl-1H-pyraozl-3-yl}-3,3-dimethylbutanamide]
Cc1cc(NC(=O)CC2CCCCC2)nn1Cc1cc(Cl)ccc1OCc1ccccc1 [Example 154, N-[1-({5-Chloro-2-[(phenylmethyl)oxy]phenyl}methyl)-5-methyl-1H-pyrazol-3-yl]-2-cyclohexylacetamide]
Cc1cc(NC(=O)c2cccc3ccccc23)nn1Cc1cc(Cl)ccc1OCc1ccccc1 [Example 160, N-[1-({5-Chloro-2-[(phenylmethyl)oxy]phenyl}methyl)-5-methyl-1H-pyrazol-3-yl]-1-naphthalenecarboxamide]
Cc1cc(C(=O)Nc2c(F)cccc2F)nn1Cc1cc(Br)ccc1OCc1ccccc1 [Example 313, 1-({5-Bromo-2-[(phenylmethyl)oxy]phenyl}methyl)-N-(2,6-difluorophenyl)-5-methyl-1H-pyrazole-3-carobxamide]
Cc1cc(C(=O)Nc2c(F)cccc2F)nn1Cc1cc(Br)ccc1OCc1ccc(F)cc1F [Example 319, 1-[(5-Bromo-2-{[(2,4-difluorophenyl)methyl]oxy}phenyl)methyl]-N-(2,6-difluorophenyl)-5-methyl-1H-pyrazole-3-carboxamide]
Cc1cc(C(=O)Nc2ccc(CN(C)C)cc2)nn1Cc1cc(Cl)ccc1OCc1ccccc1 [Example 346, 1-({5-Chloro-2-[(phenylmethyl)oxy]phenyl}methyl)-N-{4-[(dimethylamino)methyl]phe-nyl}-5-methyl-1H-pyrazole-3-carboxamide hydrochloride]
Cc1cc(-c2nnn[nH]2)nn1Cc1cc(Cl)ccc1OCc1ccccc1 [Example 353, 5-[1-({5-Chloro-2-[(phenylmethyl)oxy]phenyl}methyl)-5-methyl-1H-pyrazol-3-yl]-1H-tetrazole]
Cc1cc(C(=O)NS(=O)(=O)c2ccccc2)nn1Cc1cc(Cl)ccc1OCc1ccccc1 [Example 355, 1-({5-Chloro-2-[(phenylmethyl)oxy]phenyl}methyl)-5-methyl-N-(phenylsulfonyl)-1H-pyrazole-3-carboxamide]
Cc1noc(C)c1S(=O)(=O)NC(=O)c1cc(C)n(Cc2cc(Cl)ccc2OCc2ccccc2)n1 [Example 356, 1-({5-Chloro-2-[(phenylmethyl)oxy]phenyl}methyl)-N-[(3,5-dimethyl-4-isoxazolyl)sulfonyl]-5-methyl-1H-pyrazole-3-carboxamide]
Cc1cc(-c2nc3ncccc3[nH]2)nn1Cc1cc(Cl)ccc1OCC(C)C [Example 372, 2-[1-({5-Chloro-2-[(2-methylpropyl)oxy]phenyl}methyl)-5-methyl-1H-pyrazol-3-yl]-1H-imidazo[4,5-b]pyridine hydrochloride]
Cc1cc(-c2nc3ccncc3[nH]2)nn1Cc1cc(Cl)ccc1OCC(C)C [Example 373, 2-[1-({5-Chloro-2-[(2-methylpropyl)oxy]phenyl}methyl)-5-methyl-1H-pyrazol-3-yl]-1H-imidazo[4,5-c]pyridine hydrochloride]
Cc1cc(-c2nc3ccc(N4CCN(C)CC4)cc3[nH]2)nn1Cc1cc(Cl)ccc1OCC(C)C [Example 375, 2-[1-({5-Chloro-2-[(2-methylpropyl)oxy]phenyl}methyl)-5-methyl-1H-pyrazol-3-yl]-5-(4-methyl-1-piperazinyl)-1H-benzimidazole trihydrochloride]
Cc1cc(-c2nc3cc(CO)ccc3[nH]2)nn1Cc1cc(Cl)ccc1OCC(C)C [Example 377, {2-[1-({5-Chloro-2-[(2-methylpropyl)oxy]phenyl}methyl)-5-methyl-1H-pyrazol-3-yl]-1H-benzimidazol-5-yl}methanol hydrochloride]
Cc1c(-c2nc3cc(CN4CCN(C)CC4)ccc3[nH]2)cnn1Cc1cc(Cl)ccc1OCC(C)C [Example 381, 2-[1-({5-Chloro-2-[(2-methylpropyl)oxy]phenyl}meth-yl)-5-methyl-1H-pyrazol-4-yl]-5-[(4-methyl-1-piperazinyl)methyl]-1H-benzimidazole trihydrochloride]
CCN1CCN(Cc2ccc3[nH]c(-c4cnn(Cc5cc(Cl)ccc5OCC(C)C)c4C)nc3c2)CC1 [Example 382, 2-[1-({5-Chloro-2-[(2-methylpropyl)oxy]phenyl}meth-yl)-5-methyl-1H-pyrazol-4-yl]-5-[(4-ethyl-1-piperazinyl)methyl]-1H-benzimidazole trihydrochloride]
CNCc1ccc(NC(=O)c2cc(C)n(Cc3cc(Cl)ccc3OCC(C)C)n2)cc1 [Example 392, 1-({5-Chloro-2-[(2-methylpropyl)oxy]phenyl}methyl)-5-methyl-N-{4-[(methylamino)methyl]phenyl}-1H-pyrazole-3-carboxamide hydrochloride]
CCNCc1ccc(NC(=O)c2cc(C)n(Cc3cc(Cl)ccc3OCC(C)C)n2)cc1 [Example 393, 1-({5-Chloro-2-[(2-methylpropyl}oxy]phenyl}methyl)-N-{4-[(ethylamino)methyl]phenyl}-5-methyl-1H-pyrazole-3-carboxamide hydrochloride]
Cc1cc(C(=O)Nc2ccc(CN(C)C)cc2)nn1Cc1cc(Cl)ccc1OCC(C)C [Example 394, 1-({5-Chloro-2-[(2-methylpropyl)oxy]phenyl}methyl)-N-{4-[(dimethylamino)methyl]phenyl}-5-methyl-1H-pyrazole-3-carboxamide hydrochloride]
Cc1cc(C(=O)Nc2ccc(CNC(C)C)cc2)nn1Cc1cc(Cl)ccc1OCC(C)C [Example 395, 1-({5-Chloro-2-[(2-methylpropyl)oxy]phenyl}methyl)-5-methyl-N-(4-{[(1-methylethyl)amino]methyl}phenyl)-1H-pyrazole-3-carboxamide hydrochloride]
Cc1cc(C(=O)Nc2ccc(CN3CCCC3)cc2)nn1Cc1cc(Cl)ccc1OCC(C)C [Example 396, 1-({5-Chloro-2-[(2-methylpropyl)oxy]phenyl}methyl)-5-methyl-N-[4-(1-pyrrolidinylmethyl)phenyl]-1H-pyrazole-3-carboxamide hydrochloride]
Cc1cc(C(=O)Nc2ccc(CN3CCCCC3)cc2)nn1Cc1cc(Cl)ccc1OCC(C)C [Example 397, 1-({5-Chloro-2-[(2-methylpropyl)oxy]phenyl}methyl)-5-methyl-N-[4-(1-piperidinylmethyl)phenyl]-1H-pyrazole-3-carboxamide hydrochloride]
Cc1cc(C(=O)Nc2ccc(CN3CCOCC3)cc2)nn1Cc1cc(Cl)ccc1OCC(C)C [Example 398, 1-({5-Chloro-2-[(2-methylpropyl)oxy]phenyl}methyl)-5-methyl-N-[4-(4-morpholinylmethyl)phenyl]-1H-pyrazole-3-carboxamide hydrochloride]
